Source: PMC10674657, “Quinazolin-4-one/3-cyanopyridin-2-one Hybrids as Dual Inhibitors of EGFR and BRAF^V600E: Design, Synthesis, and Antiproliferative Activity” (Pharmaceuticals, 2023)

What was measured:
[1] = system: Panc-1 human pancreatic cancer cell line; experiment: Antiproliferative assay, Panc-1; conditions: Homo sapiens, PANC-1, read-out: Antiproliferative Activity IC50 ± SEM, Panc-1
Method: (§1) For a rigorous assessment, the widely accepted MTT assay [63, 64] was employed. Using Doxorubicin, a well-established drug, as the reference standard ensures a benchmark for the synthesized compounds, allowing a contextual understanding of their efficacy.
(§2) The MTT assay [63, 64] was employed for this assessment, with Doxorubicin as the reference drug.
(§3) 24h followed by the addition of synthesized compounds (in 200 μL medium to yield a final concentration of 0.1% (v/v) dimethyl sulfoxide) into individual wells of the plates. Four wells were designated to a single compound. The plates were allowed to incubate at 37°C for 96 h. After wards, the medium was aspirated and 3-[4,5-dimethylthiazol-2-yl]-2,5-diphenyltetrazolium bromide (MTT) (0.4 mg/mL) in medium was added to each well and subsequently incubated for 3 h. The medium was aspirated and 150 μL dimethyl sulfoxide (DMSO) was added to each well.
(§4) The plates were vortexed followed by the measurement of absorbance at 540 nm on a microplate

[2] = system: MCF-7 human breast adenocarcinoma cell line; experiment: Antiproliferative assay, MCF-7; conditions: Homo sapiens, MCF7, read-out: Antiproliferative Activity IC50 ± SEM, MCF-7
Method: as §1, §2, §3, §4

[3] = system: HT-29 human colon cancer cell line; experiment: Antiproliferative assay, HT-29; conditions: Homo sapiens, HT-29, read-out: Antiproliferative Activity IC50 ± SEM, HT-29
Method: as §1, §2, §3, §4

[4] = Cell viability (cytotoxicity) MTT assay in non-tumorigenic MCF-10A cells; type: cell-based, human; conditions: human, MCF-10A mammary epithelial cells
[5] = system: A-549 human lung carcinoma cell line; experiment: Antiproliferative assay, A-549; conditions: Homo sapiens, A549, read-out: Antiproliferative Activity IC50 ± SEM, A-549
Method: as §1, §2, §3, §4

[6] = system: four cancer cell lines (A-549, MCF-7, Panc-1, HT-29); experiment: Antiproliferative assay, average over four cancer cell lines (GI50); conditions: Homo sapiens, read-out: Average IC50 (GI50)
Method: as §1, §2, §3, §4

[7] = target: T1, BRAF^V600E (Mus musculus, UniProt P28028, V585E); experiment: BRAF V600E kinase inhibitory assay; type: biochemical; conditions: for IC50: BRAF V600E, mean ± SEM, read-out: BRAF Inhibition IC50 ± SEM
T1 construct: Mouse full-length GST-tagged; purchased Invitrogen PV3849
From the text: Mouse full-length GST-tagged
developed using a phosphor screen.

[8] = target: EGFR (Homo sapiens, UniProt P00533); experiment: EGFR-TK inhibitory assay
Chain of EGFR (P00533 669-1210): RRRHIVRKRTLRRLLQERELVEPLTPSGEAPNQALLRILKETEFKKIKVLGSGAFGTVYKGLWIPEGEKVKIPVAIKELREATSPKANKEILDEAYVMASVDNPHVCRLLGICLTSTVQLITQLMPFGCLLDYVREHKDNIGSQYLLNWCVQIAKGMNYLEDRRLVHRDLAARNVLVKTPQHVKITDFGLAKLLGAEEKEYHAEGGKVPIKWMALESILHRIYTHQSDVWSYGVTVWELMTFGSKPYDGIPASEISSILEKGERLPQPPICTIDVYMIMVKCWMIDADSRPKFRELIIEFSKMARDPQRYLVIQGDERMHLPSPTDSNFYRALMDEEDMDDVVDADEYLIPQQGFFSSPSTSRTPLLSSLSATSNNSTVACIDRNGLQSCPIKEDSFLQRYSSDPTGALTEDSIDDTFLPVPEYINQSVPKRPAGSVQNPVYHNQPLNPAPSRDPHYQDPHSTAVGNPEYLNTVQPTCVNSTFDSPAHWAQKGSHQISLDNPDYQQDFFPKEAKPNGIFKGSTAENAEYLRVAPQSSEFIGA
Method: Baculoviral expression vectors including pBlueBacHis2B and pFASTBacHTc were used
5ʹ upstream to the EGFR sequence comprised a sequence that encoded (His)6.
Sf-9cells were infected for 72h for protein expression. The pellets of Sf-9 cells were solubilized in
a buffer containing sodium vanadate (100 μM), aprotinin (10 μg/mL), triton (1%), HEPES buffer(50mM), ammonium molybdate (10 μM), benzamidine HCl (16 μg/mL), NaCl (10mM), leupeptin (10 μg/mL) and pepstatin (10 μg/mL) at 0°C for 20 min at pH 7.4, followed by centrifugation for 20 min. To eliminate the nonspecifically bound material, a Ni-NTA super flow packed column was used to pass through and wash the crude extract supernatant first with
10mMand then with 100 mM imidazole. Histidine-linked proteins were first eluted with 250 and
then with 500 mM imidazole subsequent to dialysis against NaCl (50 mM), HEPES (20 mM),
glycerol (10%) and 1 μg/mL each of aprotinin, leupeptin and pepstatin for 120 min. The
purification was performed either at 4 °C or on ice. To record autophosphorylation level, EGFR
kinase assay was carried out based on DELFIA/Time-Resolved Fluorometry. The compounds
were first dissolved in DMSO absolute, subsequent to dilution t o appropriate concentration using
HEPES(25 mM) at pH 7.4. Each compound (10 μL) was incubated with recombinant enzyme (10
μL, 5ng for EGFR, 1:80 dilution in 100 mM HEPES) for 10 min at 25 °C, subsequent to the addition of5X buffer (10 μL, containing 2 mM MnCl2, 100 μM Na3VO4, 20 mM HEPES and 1
mM DTT)and ATP-MgCl2 (20 μL, containing 0.1 mM ATP and 50 mM MgCl2) and incubation
for 1h. The negative and positive controls were included in each plate by the incubation of enzyme
either with or without ATP-MgCl2. The liquid was removed after incubation and the plates were
washed thrice using a wash buffer. Europium-tagged anti phosphotyrosine antibody (75 μL, 400
ng) was added to each well followed by incubation of 1h and then washing of the plates using buffer. The enhancement solution was added to each well and the signal was recorded at excitation
The autophosphorylation percentage inhibition by compounds was calculated using the following equation: Using the curves of percentage inhibition

T1 sequence (P28028 whole entry V585E): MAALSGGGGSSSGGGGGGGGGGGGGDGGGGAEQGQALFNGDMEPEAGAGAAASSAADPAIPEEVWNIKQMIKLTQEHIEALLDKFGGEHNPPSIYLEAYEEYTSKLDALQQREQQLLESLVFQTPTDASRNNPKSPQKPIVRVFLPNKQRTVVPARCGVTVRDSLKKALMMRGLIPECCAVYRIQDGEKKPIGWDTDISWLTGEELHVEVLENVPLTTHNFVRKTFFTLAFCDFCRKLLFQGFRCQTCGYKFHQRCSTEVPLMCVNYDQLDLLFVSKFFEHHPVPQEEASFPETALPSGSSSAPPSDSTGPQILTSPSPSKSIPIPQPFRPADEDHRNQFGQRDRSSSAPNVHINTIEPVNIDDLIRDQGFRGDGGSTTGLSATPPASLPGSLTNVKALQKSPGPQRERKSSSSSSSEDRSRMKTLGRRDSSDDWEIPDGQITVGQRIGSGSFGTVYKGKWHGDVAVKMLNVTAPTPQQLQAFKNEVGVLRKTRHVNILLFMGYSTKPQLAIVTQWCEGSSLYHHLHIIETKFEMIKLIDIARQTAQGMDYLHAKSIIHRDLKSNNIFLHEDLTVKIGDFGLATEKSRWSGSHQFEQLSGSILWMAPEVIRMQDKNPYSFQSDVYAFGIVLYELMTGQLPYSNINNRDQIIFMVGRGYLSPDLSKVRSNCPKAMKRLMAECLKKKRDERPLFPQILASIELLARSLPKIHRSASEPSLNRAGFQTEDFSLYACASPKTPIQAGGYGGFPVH

Row | SMILES | IC50 [1] [µM] | IC50 [2] [µM] | IC50 [3] [µM] | IC50 [5] [µM] | IC50 [6] [µM] | IC50 [7] [µM] | IC50 [8] [µM] | viability at 4 days, 50 µM [4] [%] | fold less potent than Erlotinib, BRAF^V600E ([7]; ratio of IC50 to Erlotinib) [fold] | fold less potent than Erlotinib, EGFR ([8]; ratio of IC50 to Erlotinib) [fold]
1 | CCn1c(SCC(=O)Nc2ccc(-c3cc(-c4ccccc4)c(C#N)c(=O)[nH]3)cc2)nc2ccccc2c1=O [Compound 7, N-(4-(5-Cyano-6-oxo-4-phenyl-1,6-dihydropyridin-2-yl)phenyl)-2-((3-ethyl-4-oxo-3,4-dihydroquinazolin-2-yl)thio)acetamide] | 9.3 ± 0.8 | 9.1 ± 0.8 | 9.8 ± 0.9 | 9.2 ± 0.8 | 9.3 | – | – | 90 | – | –
2 | N#Cc1c(-c2ccccc2)cc(-c2ccc(NC(=O)CSc3nc4ccccc4c(=O)n3-c3ccccc3)cc2)[nH]c1=O [Compound 12, N-(4-(5-Cyano-6-oxo-4-phenyl-1,6-dihydropyridin-2-yl)phenyl)-2-((4-oxo-3-phenyl-3,4-dihydroquinazolin-2-yl)thio)acetamide] | 7.8 ± 0.7 | 7.2 ± 0.7 | 7.7 ± 0.7 | 7.5 ± 0.6 | 7.5 | – | – | 86 | – | –
3 | COc1ccc(-c2cc(-c3ccc(NC(=O)CSc4nc5ccccc5c(=O)n4-c4ccccc4)cc3)[nH]c(=O)c2C#N)cc1 [Compound 13, N-(4-(5-Cyano-4-(4-methoxyphenyl)-6-oxo-1,6-dihydropyridin-2-yl)phenyl)-2-((4-oxo-3-phenyl-3,4-dihydroquinazolin-2-yl)thio)acetamide] | 3.4 ± 0.3 | 3.1 ± 0.3 | 3.5 ± 0.3 | 3.2 ± 0.3 | 3.3 | – | – | 87 | – | –
4 | N#Cc1c(-c2ccc(Cl)cc2)cc(-c2ccc(NC(=O)CSc3nc4ccccc4c(=O)n3-c3ccccc3)cc2)[nH]c1=O [Compound 14, N-(4-(4-(4-Chlorophenyl)-5-cyano-6-oxo-1,6-dihydropyridin-2-yl)phenyl)-2-((4-oxo-3-phenyl-3,4-dihydroquinazolin-2-yl)thio)acetamide] | 4.2 ± 0.4 | 3.9 ± 0.4 | 4.2 ± 0.4 | 4.1 ± 0.4 | 4.1 | – | – | 89 | – | –
5 | N#Cc1c(-c2ccc(Br)cc2)cc(-c2ccc(NC(=O)CSc3nc4ccccc4c(=O)n3-c3ccccc3)cc2)[nH]c1=O [Compound 15, N-(4-(4-(4-Bromophenyl)-5-cyano-6-oxo-1,6-dihydropyridin-2-yl)phenyl)-2-((4-oxo-3-phenyl-3,4-dihydroquinazolin-2-yl)thio)acetamide] | 5 ± 0.4 | 4.6 ± 0.4 | 4.9 ± 0.4 | 4.7 ± 0.4 | 4.8 | – | – | 87 | – | –
6 | N#Cc1c(-c2ccc(F)cc2)cc(-c2ccc(NC(=O)CSc3nc4ccccc4c(=O)n3-c3ccccc3)cc2)[nH]c1=O [Compound 16, N-(4-(5-Cyano-4-(4-fluorophenyl)-6-oxo-1,6-dihydropyridin-2-yl)phenyl)-2-((4-oxo-3-phenyl-3,4-dihydroquinazolin-2-yl)thio)acetamide] | 5.1 ± 0.5 | 4.7 ± 0.4 | 5.1 ± 0.5 | 4.8 ± 0.5 | 4.9 | – | – | 89 | – | –
7 | C=CCn1c(SCC(=O)Nc2ccc(-c3cc(-c4ccccc4)c(C#N)c(=O)[nH]3)cc2)nc2ccccc2c1=O [Compound 17, 2-((3-Allyl-4-oxo-3,4-dihydroquinazolin-2-yl)thio)-N-(4-(5-cyano-6-oxo-4-phenyl-1,6-dihydropyridin-2-yl)phenyl)acetamide] | 8.9 ± 0.7 | 8.1 ± 0.7 | 9 ± 0.7 | 8.4 ± 0.7 | 8.6 | – | – | 89 | – | –
8 | C=CCn1c(SCC(=O)Nc2ccc(-c3cc(-c4ccc(OC)cc4)c(C#N)c(=O)[nH]3)cc2)nc2ccccc2c1=O [Compound 18, 2-((3-Allyl-4-oxo-3,4-dihydroquinazolin-2-yl)thio)-N-(4-(5-cyano-4-(4-methoxyphenyl)-6-oxo-1,6-dihydropyridin-2-yl)phenyl)acetamide] | 1.3 ± 0.1 | 1 ± 0.1 | 1.3 ± 0.1 | 1.1 ± 0.1 | 1.2 | 0.14 ± 0.01 | 0.11 ± 0.01 | 90 | 2 | 1.4
9 | C=CCn1c(SCC(=O)Nc2ccc(-c3cc(-c4ccc(F)cc4)c(C#N)c(=O)[nH]3)cc2)nc2ccccc2c1=O [Compound 21, 2-((3-Allyl-4-oxo-3,4-dihydroquinazolin-2-yl)thio)-N-(4-(5-cyano-4-(4-fluorophenyl) -6-oxo-1,6-dihydropyridin-2-yl)phenyl)acetamide] | 2.2 ± 0.2 | 1.9 ± 0.1 | 2.2 ± 0.1 | 2.1 ± 0.2 | 2.1 | – | – | 87 | – | –
10 | COc1cccc2c1C(=O)c1c(O)c3c(c(O)c1C2=O)C[C@@](O)(C(=O)CO)C[C@@H]3O[C@H]1C[C@H](N)[C@H](O)[C@H](C)O1 [Doxorubicin, reference compound] | 1.4 ± 0.1 | 0.9 ± 0.1 | 1 ± 0.1 | 1.2 ± 0.1 | 1.1 | – | – | – | – | –

Further lines, with some results ahead:

Row | IC50 [1] [µM] | IC50 [2] [µM] | IC50 [3] [µM] | IC50 [5] [µM] | IC50 [6] [µM] | IC50 [7] [µM] | IC50 [8] [µM] | SMILES | viability at 4 days, 50 µM [4] [%] | fold less potent than Erlotinib, BRAF^V600E ([7]; ratio of IC50 to Erlotinib) [fold] | fold less potent than Erlotinib, EGFR ([8]; ratio of IC50 to Erlotinib) [fold]
11 | 1.7 ± 0.1 | 1.4 ± 0.1 | 1.7 ± 0.1 | 1.5 ± 0.1 | 1.6 | 0.22 ± 0.015 | 0.16 ± 0.012 | CCn1c(SCC(=O)Nc2ccc(-c3cc(-c4ccc(OC)cc4)c(C#N)c(=O)[nH]3)cc2)nc2ccccc2c1=O [Compound 8, N-(4-(5-Cyano-4-(4-methoxyphenyl)-6-oxo-1,6-dihydropyridin-2-yl)phenyl)-2-((3-ethyl-4-oxo-3,4-dihydroquinazolin-2-yl)thio)acetamide] | 89 | – | –
12 | 2 ± 0.1 | 1.6 ± 0.1 | 2 ± 0.1 | 1.8 ± 0.1 | 1.8 | 0.29 ± 0.02 | 0.19 ± 0.015 | CCn1c(SCC(=O)Nc2ccc(-c3cc(-c4ccc(Cl)cc4)c(C#N)c(=O)[nH]3)cc2)nc2ccccc2c1=O [Compound 9, N-(4-(4-(4-Chlorophenyl)-5-cyano-6-oxo-1,6-dihydropyridin-2-yl)phenyl)-2-((3-ethyl-4-oxo-3,4-dihydroquinazolin-2-yl)thio)acetamide] | 96 | – | –
13 | 2.6 ± 0.2 | 2.2 ± 0.45 | 2.7 ± 0.2 | 2.4 ± 0.2 | 2.5 | – | – | CCn1c(SCC(=O)Nc2ccc(-c3cc(-c4ccc(Br)cc4)c(C#N)c(=O)[nH]3)cc2)nc2ccccc2c1=O [Compound 10, N-(4-(4-(4-Bromophenyl)-5-cyano-6-oxo-1,6-dihydropyridin-2-yl)phenyl)-2-((3-ethyl-4-oxo-3,4-dihydroquinazolin-2-yl)thio)acetamide] | 88 | – | –
14 | 3.8 ± 0.3 | 3.6 ± 0.3 | 4 ± 0.3 | 3.7 ± 0.3 | 3.8 | – | – | CCn1c(SCC(=O)Nc2ccc(-c3cc(-c4ccc(F)cc4)c(C#N)c(=O)[nH]3)cc2)nc2ccccc2c1=O [Compound 11, N-(4-(5-Cyano-4-(4-fluorophenyl)-6-oxo-1,6-dihydropyridin-2-yl)phenyl)-2-((3-ethyl-4-oxo-3,4-dihydroquinazolin-2-yl)thio)acetamide] | 91 | – | –
